Laboratory results from patent publication US9863701B2, “Compositions and methods for atmospheric spray freeze drying” (Aerosol Therapeutics, LLC, priority 2013, dated 2018).

Assays:
[1] = Moisture content of powder after atmospheric spray freeze drying, original equipment; format: physicochemical; conditions: 15 wt % mannitol aqueous solution; dried 1 hr at around -15° C., then raised to room temperature within 30 minutes
Description: The apparatus is allowed to run for approximately 5 to 15 minutes to reach the desired temperature in the chamber 110, 210, 310 via gas cooled by a refrigeration system providing gas flow into the chamber 110 through the porous wall. The aqueous solution or suspension of the substances to be dried is then sprayed using the atomizer 102, 202, 302 and frozen simultaneously at a chosen temperature by the surrounding curtain of liquid nitrogen generated from ring nozzle 218, 318 or an equivalent such as cryogenic flow from nozzles 118 through porous sidewalls of chamber 110. The frozen powder is conveyed down to the exit filter 122, 222, 322 by the concurrent downstream flow. After spray freezing, drying begins. The frozen powder collected on the exit filter 122, 222, 322, at the bottom is dried continuously at atmospheric pressure until the target moisture of the frozen powder is removed by the cold desiccated gas stream. After atmospheric spray-freeze drying, a loose powder remains on the exit filter 122, 222, 322. This powder can easily be broken up into free flowing, dry porous particles usually of approximately the same size and shape as the original frozen droplets.
In one example, powder was produced using the method described above. […] The moisture content was measured to be only 0.9 wt %.

[2] = Moisture content of powder after ASFD run, second generation equipment; format: physicochemical; conditions: 10% BGG aqueous solution, 50 ml; spray gas 5 SCFM, drying 20 SCFM; after three hours and thirty minutes
Description: A typical ASFD run to dry Bovine Gamma Globulin (BGG) was conducted per a stepwise procedure like the following example. A solution of BGG was prepared such that the BGG constituted 10% by weight of an aqueous solution. Once the inner chamber was cooled to a temperature of −140° F., 50 ml of solution was sprayed at a rate of 1 ml per second and at a pressure of 40 psi into the reactor chamber after the flow of cooling gas had been decreased to 5 SCFM. A flow rate of 20 SCFM was then set for drying. Temperature during the first hour was set at 30° F., and increased by five degrees at hour two and hour three. […] After three hours and thirty minutes the powder was removed from the chamber and tested for water content.

## OC[C@@H](O)[C@@H](O)[C@H](O)[C@H](O)CO [mannitol]
[1]
  moisture content: 0.9 wt %

## Bovine Gamma Globulin [BGG]
[2]
  moisture content: 4.2%
